Laboratory results reported in US12410220B2, “Modulation of mammalian cell lineage by synthetic immodulins” (priority 2021, dated 2025).
Peptide text beside a SMILES is read from it.

What was measured:
[1] = Ferric iron-binding assay of biotinylated immodulin peptides; settings: N-terminally biotinylated peptide, 400 ng per well, 60 min room temperature; immX3AVD = 100
Outline: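 N-terminally biotinylated peptides (400 ng/well) were tested for ferric iron binding in two formats: streptavidin-A488 complexes on Fe3+-charged NTA plates, or streptavidin-captured peptide probed with FITC-NTA·Fe3+. Each step was 60 min at room temperature with fluorescence read at 525 nm. Values are normalized to immX3AVD control (100) and averaged across both protocols.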

THP1-Dual monocytes [2] = test: THP1-Dual monocyte differentiation assay, PMA protocol; assay type: cell-based, human; settings: peptide 330 nM, 24 hours, relative to immX3AVD = 100
Protocol: (§1) Mammalian cell differentiation assays using THP1-Dual monocytes reporter cell line (Invivogen Inc, San Diego, CA) seeded at 2×10e5 cells per well in 96-well plates and cultured at 37 degrees C. in RPMI-1640 growth medium plus 10% fetal bovine serum and 1% penicillin/streptomycin, then treated for 24 hours with either 100 ng/ml Phorbol 12-myristate 13-acetate (PMA protocol; Cayman Chemical Company, Ann Arbor, MI) or a mixture of IL-4 (100 ng/ml), GM-CSF (100 ng/ml), TNF-alpha (20 ng/ml) and ionomycin (200 ng/ml) (Cytokine protocol; Peprotech, Rocky Hill, NJ). Peptide (330 nM) was then added, and incubation continued for an additional 24 hours. Culture supernatants were then assayed for CCL22. Plates with adherent cells were washed with PBS and assayed for immunoreactivity of surface markers such as CD169, Clec9a, Clec12a or MHCII using fuorescent tag- or biotin-labeled anti-human antibodies purchased from Miltenyi Biotec (Auburn, CA) and a relevant secondary detection reagent, or by fluorescence counts.

THP1-Dual monocytes [3] = test: THP1-Dual monocyte differentiation assay, cytokine protocol; assay type: cell-based, human; settings: peptide 330 nM, 24 hours, relative to immX3AVD = 100
Protocol: as §1

[4] = Experiment 4D binding to FITC-labelled heparin; settings: biotinylated peptide 1 ug/well; 1 ug FITC-labelled heparin, 90 minutes
Protocol: (§2) Streptavidin-coated 96-well plates (G-Biosciences, St. Louis, MO) were pre-treated with biotinylated peptides [see Example 1 for key] at 1 ug/well, at room temperature for 60 minutes. The plate was washed with PBS buffer and then 1 ug FITC-labelled heparin or hyaluronic acid in 100 uL PBS buffer was added per well (all tests in quadruplicate). Incubation proceeded for 90 minutes at room temperature, followed by two PBS washes. The plate was read in a standard laboratory fluorometer (488/525 nm exitation/[…]) and the counts normalized for immX3 peptide binding=100. Values statistically above background are shown in bold font. **p<0.05 versus immX3AVD.

[5] = Experiment 4D binding to FITC-labelled hyaluronic acid; settings: biotinylated peptide 1 ug/well; 1 ug FITC-labelled hyaluronic acid, 90 minutes
Protocol: as §2

CC(C)[C@H](NC(=O)[C@H](C)NC(=O)[C@H](Cc1c[nH]c2ccccc12)NC(=O)[C@H](CS)NC(=O)[C@H](Cc1ccccc1)NC(=O)CNC(=O)[C@H](CCCNC(=N)N)NC(=O)[C@H](CCCCN)NC(=O)[C@H](CCCNC(=N)N)NC(=O)CNC(=O)[C@H](CCCCN)NC(=O)[C@H](CO)NC(=O)[C@@H]1CCCN1C(=O)[C@H](CCCNC(=N)N)NC(=O)[C@H](CS)NC(=O)[C@H](CCC(N)=O)NC(=O)[C@H](CCCCN)NC(=O)[C@H](CCCCN)NC(=O)[C@H](CCCCN)NC(=O)[C@H](Cc1ccc(O)cc1)NC(=O)[C@H](Cc1ccccc1)NC(=O)CNC(=O)[C@H](CCCCN)NC(=O)[C@@H](N)CCCCN)C(=O)N[C@@H](CC(=O)O)C(=O)O [immX3AVD] (H-KKGFYKKKQCRPSKGRKRGFCWAVD-OH; N-terminus and C-terminus assumed)
Ferric iron binding, fluorescence standardized to immX3AVD control peptide (100), Avg ± SD [1]: 100.0
CD169+ (AU) (THP1-Dual monocytes [2]): 100 AU
Clec12A(AU) (THP1-Dual monocytes [3]): 100 AU
Heparin binding, counts normalized for immX3 peptide binding=100 [4]: 100.0 ± 4.7
Hyaluronate binding, counts normalized for immX3 peptide binding=100 [5]: 100.0 ± 22.8
